# Results published in ChEMBL document CHEMBL5344473, “Inhibition of N-type calcium channels by phenoxyaniline and sulfonamide analogues” (RSC Med Chem, 2024).
# Experiments:
# in vitro = details: Sprague-Dawley, rat, plasma
# [1] = target: Voltage-dependent T-type calcium channel subunit alpha-1H (Homo sapiens, UniProt O95180); assay: Inhibition of human recombinant Cav3.2 alpha1 subunit expressed in HEK293T cells assessed as inhibition of calcium influx measured for 300 secs by FLIPR assay; type: cell-based
# Voltage-dependent T-type calcium channel subunit alpha-1H, sequence (O95180 whole entry): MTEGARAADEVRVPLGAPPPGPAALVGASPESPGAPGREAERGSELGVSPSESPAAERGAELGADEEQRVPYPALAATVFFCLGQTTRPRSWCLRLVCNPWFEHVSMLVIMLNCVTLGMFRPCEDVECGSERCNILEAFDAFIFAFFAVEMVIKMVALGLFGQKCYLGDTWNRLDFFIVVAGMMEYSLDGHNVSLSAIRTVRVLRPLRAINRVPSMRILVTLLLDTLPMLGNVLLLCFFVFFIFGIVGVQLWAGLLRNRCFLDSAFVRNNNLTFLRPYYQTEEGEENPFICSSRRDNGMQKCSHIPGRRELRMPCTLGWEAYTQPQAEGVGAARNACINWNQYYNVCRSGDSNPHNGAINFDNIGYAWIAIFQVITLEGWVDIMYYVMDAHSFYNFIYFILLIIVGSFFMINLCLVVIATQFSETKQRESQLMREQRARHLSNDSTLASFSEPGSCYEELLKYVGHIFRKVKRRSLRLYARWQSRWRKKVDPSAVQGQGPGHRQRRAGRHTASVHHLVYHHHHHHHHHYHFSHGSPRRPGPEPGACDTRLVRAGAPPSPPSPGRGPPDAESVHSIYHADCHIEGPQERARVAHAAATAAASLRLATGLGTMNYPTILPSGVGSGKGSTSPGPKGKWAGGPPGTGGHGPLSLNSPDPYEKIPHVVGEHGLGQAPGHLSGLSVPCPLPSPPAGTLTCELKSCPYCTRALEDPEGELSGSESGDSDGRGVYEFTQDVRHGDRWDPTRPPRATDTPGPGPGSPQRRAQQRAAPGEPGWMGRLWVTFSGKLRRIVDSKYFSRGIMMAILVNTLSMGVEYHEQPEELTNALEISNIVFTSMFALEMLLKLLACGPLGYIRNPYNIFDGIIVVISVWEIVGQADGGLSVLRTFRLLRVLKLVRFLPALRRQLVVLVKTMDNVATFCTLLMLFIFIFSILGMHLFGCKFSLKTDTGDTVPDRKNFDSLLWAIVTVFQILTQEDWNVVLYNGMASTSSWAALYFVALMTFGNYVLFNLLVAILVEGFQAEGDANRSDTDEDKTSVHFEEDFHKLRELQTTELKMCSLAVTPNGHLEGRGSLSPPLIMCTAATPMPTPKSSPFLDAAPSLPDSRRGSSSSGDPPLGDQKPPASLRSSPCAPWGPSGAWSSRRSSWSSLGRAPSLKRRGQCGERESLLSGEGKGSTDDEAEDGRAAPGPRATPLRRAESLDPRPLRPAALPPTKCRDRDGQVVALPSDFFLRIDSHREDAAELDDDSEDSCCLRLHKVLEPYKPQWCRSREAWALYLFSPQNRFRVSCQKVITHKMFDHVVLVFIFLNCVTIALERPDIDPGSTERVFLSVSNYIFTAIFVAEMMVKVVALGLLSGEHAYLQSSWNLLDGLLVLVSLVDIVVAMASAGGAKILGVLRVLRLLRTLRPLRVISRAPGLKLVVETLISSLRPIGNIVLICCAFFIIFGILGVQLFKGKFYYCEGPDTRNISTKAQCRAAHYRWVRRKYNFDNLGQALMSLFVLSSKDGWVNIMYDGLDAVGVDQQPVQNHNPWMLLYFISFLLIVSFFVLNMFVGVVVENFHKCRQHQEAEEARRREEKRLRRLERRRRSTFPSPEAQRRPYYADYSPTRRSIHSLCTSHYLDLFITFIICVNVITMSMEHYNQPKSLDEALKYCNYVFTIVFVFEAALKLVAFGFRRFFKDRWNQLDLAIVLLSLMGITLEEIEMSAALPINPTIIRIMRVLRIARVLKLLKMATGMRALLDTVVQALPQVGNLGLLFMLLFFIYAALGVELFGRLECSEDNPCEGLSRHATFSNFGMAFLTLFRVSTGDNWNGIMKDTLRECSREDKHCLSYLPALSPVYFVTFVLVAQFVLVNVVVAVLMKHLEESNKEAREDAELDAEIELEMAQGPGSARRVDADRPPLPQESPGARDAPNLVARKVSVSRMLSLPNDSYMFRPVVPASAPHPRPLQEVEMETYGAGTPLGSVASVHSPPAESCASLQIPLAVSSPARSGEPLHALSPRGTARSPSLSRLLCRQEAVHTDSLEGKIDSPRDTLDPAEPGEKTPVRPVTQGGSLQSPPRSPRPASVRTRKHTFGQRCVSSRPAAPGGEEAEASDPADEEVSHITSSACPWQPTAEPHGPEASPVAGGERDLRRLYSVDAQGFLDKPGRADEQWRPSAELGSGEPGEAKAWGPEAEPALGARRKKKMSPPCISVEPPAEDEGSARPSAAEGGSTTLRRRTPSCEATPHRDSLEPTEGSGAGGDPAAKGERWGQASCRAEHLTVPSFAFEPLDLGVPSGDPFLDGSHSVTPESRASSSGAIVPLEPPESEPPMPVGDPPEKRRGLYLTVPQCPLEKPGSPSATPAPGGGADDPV
# [2] = target: Voltage-dependent N-type calcium channel subunit alpha-1B (Homo sapiens, UniProt Q00975); assay: Inhibition of Cav2.2 in human SH-SY5Y cells assessed as inhibition of calcium influx measured for 300 secs in presence of Cav1 blocker, nifedipine by FLIPR assay; type: cell-based
# Voltage-dependent N-type calcium channel subunit alpha-1B, sequence (Q00975 whole entry): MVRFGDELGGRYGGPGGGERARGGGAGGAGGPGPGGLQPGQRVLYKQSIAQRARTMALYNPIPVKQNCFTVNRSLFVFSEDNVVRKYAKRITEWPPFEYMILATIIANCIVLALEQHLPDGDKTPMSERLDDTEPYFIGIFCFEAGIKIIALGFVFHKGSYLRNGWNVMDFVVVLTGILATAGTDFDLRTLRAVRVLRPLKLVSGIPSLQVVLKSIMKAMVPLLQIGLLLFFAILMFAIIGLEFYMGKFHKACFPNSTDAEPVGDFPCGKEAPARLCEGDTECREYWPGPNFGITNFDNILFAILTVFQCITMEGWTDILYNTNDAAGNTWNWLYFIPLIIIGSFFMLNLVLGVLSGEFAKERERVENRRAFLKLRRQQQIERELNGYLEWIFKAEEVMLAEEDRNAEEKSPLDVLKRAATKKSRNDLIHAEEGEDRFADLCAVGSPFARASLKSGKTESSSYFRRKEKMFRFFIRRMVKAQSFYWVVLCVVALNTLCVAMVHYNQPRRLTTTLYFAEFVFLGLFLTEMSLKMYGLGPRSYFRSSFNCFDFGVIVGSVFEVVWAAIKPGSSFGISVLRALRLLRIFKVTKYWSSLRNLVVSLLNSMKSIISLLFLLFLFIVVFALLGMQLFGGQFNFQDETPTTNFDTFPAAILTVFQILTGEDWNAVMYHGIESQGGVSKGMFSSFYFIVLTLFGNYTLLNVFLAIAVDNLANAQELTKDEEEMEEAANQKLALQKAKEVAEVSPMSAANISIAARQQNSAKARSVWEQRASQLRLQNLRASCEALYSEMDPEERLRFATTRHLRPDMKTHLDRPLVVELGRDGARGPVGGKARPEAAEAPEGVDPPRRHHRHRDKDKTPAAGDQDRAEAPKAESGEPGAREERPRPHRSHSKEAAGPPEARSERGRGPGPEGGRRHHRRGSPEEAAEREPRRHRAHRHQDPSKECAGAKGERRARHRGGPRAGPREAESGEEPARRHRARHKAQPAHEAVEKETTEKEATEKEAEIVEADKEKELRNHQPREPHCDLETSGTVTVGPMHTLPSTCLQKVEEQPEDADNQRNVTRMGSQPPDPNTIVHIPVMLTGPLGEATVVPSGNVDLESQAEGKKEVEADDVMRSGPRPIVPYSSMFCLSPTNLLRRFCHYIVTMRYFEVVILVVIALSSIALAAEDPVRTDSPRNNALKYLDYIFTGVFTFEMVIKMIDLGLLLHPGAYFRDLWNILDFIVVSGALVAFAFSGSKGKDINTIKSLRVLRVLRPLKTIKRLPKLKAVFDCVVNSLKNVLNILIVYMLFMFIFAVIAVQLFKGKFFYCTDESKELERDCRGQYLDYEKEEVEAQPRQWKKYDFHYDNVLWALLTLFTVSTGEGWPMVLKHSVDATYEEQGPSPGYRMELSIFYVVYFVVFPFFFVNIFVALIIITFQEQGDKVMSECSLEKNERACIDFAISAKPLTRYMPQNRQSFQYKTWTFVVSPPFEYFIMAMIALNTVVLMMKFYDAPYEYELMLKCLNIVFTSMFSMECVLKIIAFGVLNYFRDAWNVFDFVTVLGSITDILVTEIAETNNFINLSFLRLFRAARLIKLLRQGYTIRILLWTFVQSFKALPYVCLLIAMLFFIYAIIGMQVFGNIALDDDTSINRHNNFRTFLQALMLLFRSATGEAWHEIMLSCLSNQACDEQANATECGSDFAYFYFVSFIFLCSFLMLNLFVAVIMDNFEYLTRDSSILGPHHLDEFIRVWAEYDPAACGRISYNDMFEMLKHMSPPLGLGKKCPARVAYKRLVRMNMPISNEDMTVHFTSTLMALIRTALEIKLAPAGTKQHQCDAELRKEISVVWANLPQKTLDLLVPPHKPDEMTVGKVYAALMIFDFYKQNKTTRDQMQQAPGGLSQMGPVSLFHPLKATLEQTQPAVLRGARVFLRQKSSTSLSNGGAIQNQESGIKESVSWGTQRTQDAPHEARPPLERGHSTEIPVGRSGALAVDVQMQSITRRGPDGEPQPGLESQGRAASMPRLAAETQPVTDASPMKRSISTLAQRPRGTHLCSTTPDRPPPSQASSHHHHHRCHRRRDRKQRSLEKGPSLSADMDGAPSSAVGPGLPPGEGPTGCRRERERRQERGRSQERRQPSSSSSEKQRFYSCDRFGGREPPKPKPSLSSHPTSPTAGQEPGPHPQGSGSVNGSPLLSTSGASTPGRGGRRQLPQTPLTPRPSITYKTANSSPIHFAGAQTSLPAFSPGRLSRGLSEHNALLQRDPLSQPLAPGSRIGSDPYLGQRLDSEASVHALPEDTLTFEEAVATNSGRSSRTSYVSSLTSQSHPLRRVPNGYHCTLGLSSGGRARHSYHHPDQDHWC
# [3] = Cytotoxicity against African green monkey COS7 cells assessed as reduction in cell viability measured after 20 hrs by CellTiter-Blue reagent based fluorescence analysis; details: chlorocebus aethiops
SMILES,half-life at 150 µM (in vitro) [h],IC50 [1] [µM],IC50 [2] [µM],CC50 at 20 h [3] [µM]
c1ccc(Oc2cccc(NCc3ccc(OCCCN4CCCCC4)cc3)c2)cc1,> 60,200,63,
CC(C)[C@H]1c2ccc(F)cc2CC[C@@]1(CCN(C)CCCc1nc2ccccc2[nH]1)OC(=O)C1CC1,,,24.3,
c1ccc(Oc2ccc(NCc3ccc(OCCCN4CCCC4)cc3)cc2)cc1,> 60,201,36,
c1ccc(Oc2cccc(NCc3ccc(OCCCn4ccnc4)cc3)c2)cc1,> 60,258,68,
CN(C)CCCOc1ccc(C(=O)Nc2ccccc2Oc2ccccc2)cc1,,,,> 100
CN(C)CCCOc1ccc(S(=O)(=O)Nc2cccc(Oc3ccccc3)c2)cc1,> 60,142,10,
FC(F)(F)c1ccc(Oc2ccccc2NCc2ccc(OCCCN3CCCC3)cc2)cc1,,110,51,
CNCCCOc1ccc(CNc2ccccc2Oc2ccc(C(F)(F)F)cc2)cc1,> 60,204,58,
Fc1ccc(Oc2ccccc2NCc2ccc(OCCCn3ccnc3)cc2)cc1,> 60,196,33,

# Second part, led by results:
half-life at 150 µM (in vitro) [h],IC50 [1] [µM],IC50 [2] [µM],SMILES,CC50 at 20 h [3] [µM]
> 60,292,20,Fc1ccc(Oc2cccc(NCc3ccc(OCCCN4CCCCC4)cc3)c2)cc1,
> 60,208,48,Fc1ccc(Oc2ccc(NCc3ccc(OCCCN4CCCC4)cc3)cc2)cc1,
> 60,371,75,N#Cc1ccc(Oc2ccc(NCc3ccc(OCCCn4ccnc4)cc3)cc2)cc1,
> 60,337,68,Fc1ccc(Oc2ccc(NCc3ccc(OCCCn4ccnc4)cc3)cc2)cc1,
~1.5,,,CN(C)CCCOc1ccc(C(=O)Nc2ccccc2Oc2ccc(F)cc2)cc1,
> 60,146,28,N#Cc1ccc(Oc2ccc(NCc3ccc(OCCCN4CCCC4)cc3)cc2)cc1,
> 60,22,19,N#Cc1ccc(Oc2ccc(NCc3ccc(OCCCN4CCCCC4)cc3)cc2)cc1,
> 60,227,39,CN(C)CCCOc1ccc(CNc2ccc(Oc3ccc(F)cc3)cc2)cc1,
> 60,182,50,FC(F)(F)c1ccc(Oc2ccc(NCc3ccc(OCCCN4CCCC4)cc3)cc2)cc1,
